In PubChem BioAssay AID2060491 (Molecular Pharmacology Branch, DTP, NCI, 2025):
One block for each molecule: values may come before it.

System: 857933-349-R-J2-PDC complex spheroids, viability
Test: Anticancer human tumor 857933-349-R-J2-PDC patient-derived colon adenocarcinoma cell line growth inhibition [GQUAD]
Conditions: for IC50: curve of first compound; for viability, T/C: stronger effect = lower value
Procedure, shortened: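 Viability of tumor cells grown as complex spheroids with endothelial and stromal cells, exposed to drug combinations. Top concentration at or near clinical Cmax (else 10 microM), diluted in half-log increments.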

[1] = second compound 0.0316 µM, first compound 0.0316 µM
[2] = second compound 0.0316 µM, first compound 0.316 µM
[3] = second compound 0.1 µM, first compound 0.0316 µM
[4] = second compound 0.1 µM, first compound 0.316 µM
[5] = second compound 0.316 µM, first compound 0.0316 µM
[6] = second compound 0.316 µM, first compound 0.316 µM
[7] = second compound 1 µM, first compound 0.0316 µM
[8] = second compound 1 µM, first compound 0.316 µM
[9] = second compound 3.16 µM, first compound 0.0316 µM
[10] = second compound 3.16 µM, first compound 0.316 µM
[11] = second compound 10 µM, first compound 0.0316 µM
[12] = second compound 10 µM, first compound 0.316 µM
[13] = second compound 0.0316 µM, first compound 0.1 µM
[14] = second compound 0.0316 µM, first compound 1 µM
[15] = second compound 0.0316 µM, first compound 3.16 µM
[16] = second compound 0.0316 µM, first compound 10 µM
[17] = second compound 0.1 µM, first compound 0.1 µM
[18] = second compound 0.1 µM, first compound 1 µM
[19] = second compound 0.1 µM, first compound 3.16 µM
[20] = second compound 0.1 µM, first compound 10 µM
[21] = second compound 0.316 µM, first compound 0.1 µM
[22] = second compound 0.316 µM, first compound 1 µM
[23] = second compound 0.316 µM, first compound 3.16 µM
[24] = second compound 0.316 µM, first compound 10 µM
[25] = second compound 1 µM, first compound 0.1 µM
[26] = second compound 1 µM, first compound 1 µM
[27] = second compound 1 µM, first compound 3.16 µM
[28] = second compound 1 µM, first compound 10 µM
[29] = second compound 3.16 µM, first compound 0.1 µM
[30] = second compound 3.16 µM, first compound 1 µM
[31] = second compound 3.16 µM, first compound 3.16 µM
[32] = second compound 3.16 µM, first compound 10 µM
[33] = second compound 10 µM, first compound 0.1 µM
[34] = second compound 10 µM, first compound 1 µM
[35] = second compound 10 µM, first compound 3.16 µM
[36] = second compound 10 µM, first compound 10 µM
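Further: spheroids exposed to compounds for one week before readout.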
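Wherever viability, T/C is given: percent viability relative to vehicle DMSO wells taken as 100%.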

IC50 (second compound 0.0316 µM): 3.53 nM
IC50 (second compound 0.1 µM): 3.89 nM
IC50 (second compound 0.316 µM): < 0.999 nM
IC50 (second compound 1 µM): < 0.999 nM
IC50 (second compound 3.16 µM): < 0.999 nM
IC50 (second compound 10 µM): < 0.999 nM
SMILES: CCc1c2c(nc3ccc(O)cc13)-c1cc3c(c(=O)n1C2)COC(=O)[C@]3(O)CC + Cc1cnc(CNC(=O)c2c(=O)c3ccc(N4CCCN(C)CC4)nc3n3c2sc2ccccc23)cn1
viability, T/C (second compound 0.0316 µM, first compound 0.000999 µM): 89%
viability, T/C (second compound 0.0316 µM, first compound 0.00316 µM): 43.6%
viability, T/C (second compound 0.0316 µM, first compound 0.00999 µM): 41.9%
viability, T/C [1]: 16.5%
viability, T/C (second compound 0.0316 µM, first compound 0.0999 µM): 10.4%
viability, T/C [2]: 8.23%
viability, T/C (second compound 0.1 µM, first compound 0.000999 µM): 55.4%
viability, T/C (second compound 0.1 µM, first compound 0.00316 µM): 55.9%
viability, T/C (second compound 0.1 µM, first compound 0.00999 µM): 31.9%
viability, T/C [3]: 11%
viability, T/C (second compound 0.1 µM, first compound 0.0999 µM): 6.26%
viability, T/C [4]: 3.59%
viability, T/C (second compound 0.316 µM, first compound 0.000999 µM): 25.9%
viability, T/C (second compound 0.316 µM, first compound 0.00316 µM): 17.3%
viability, T/C (second compound 0.316 µM, first compound 0.00999 µM): 5.28%
viability, T/C [5]: 2.97%
viability, T/C (second compound 0.316 µM, first compound 0.0999 µM): 2.84%
viability, T/C [6]: 0.55%
viability, T/C (second compound 1 µM, first compound 0.000999 µM): 3.82%
viability, T/C (second compound 1 µM, first compound 0.00316 µM): 3.55%
viability, T/C (second compound 1 µM, first compound 0.00999 µM): 2.71%
viability, T/C [7]: 1.95%
viability, T/C (second compound 1 µM, first compound 0.0999 µM): 1.2%
viability, T/C [8]: 0.14%
viability, T/C (second compound 3.16 µM, first compound 0.000999 µM): 2.34%
viability, T/C (second compound 3.16 µM, first compound 0.00316 µM): 1.9%
viability, T/C (second compound 3.16 µM, first compound 0.00999 µM): 1.86%
viability, T/C [9]: 0.77%
viability, T/C (second compound 3.16 µM, first compound 0.0999 µM): 0.1%
viability, T/C [10]: 0.13%
viability, T/C (second compound 10 µM, first compound 0.000999 µM): 1.54%
viability, T/C (second compound 10 µM, first compound 0.00316 µM): 0.97%
viability, T/C (second compound 10 µM, first compound 0.00999 µM): 0.21%
viability, T/C [11]: 0.17%
viability, T/C (second compound 10 µM, first compound 0.0999 µM): 0.16%
viability, T/C [12]: 0.19%

IC50 (second compound 0.0316 µM): 331 nM
IC50 (second compound 0.1 µM): 104 nM
IC50 (second compound 0.316 µM): < 31.6 nM
IC50 (second compound 1 µM): < 31.6 nM
IC50 (second compound 3.16 µM): < 31.6 nM
IC50 (second compound 10 µM): < 31.6 nM
SMILES: COc1cc(C2c3cc4c(cc3C(OC3OC5COC(C)OC5C(O)C3O)C3COC(=O)C23)OCO4)cc(OC)c1O (stereo not drawn) + Cc1cnc(CNC(=O)c2c(=O)c3ccc(N4CCCN(C)CC4)nc3n3c2sc2ccccc23)cn1
viability, T/C [1]: 66.6%
viability, T/C [13]: 52.2%
viability, T/C [2]: 43.6%
viability, T/C [14]: 47%
viability, T/C [15]: 43.6%
viability, T/C [16]: 22.9%
viability, T/C [3]: 54.1%
viability, T/C [17]: 49.4%
viability, T/C [4]: 44.5%
viability, T/C [18]: 38.2%
viability, T/C [19]: 36.2%
viability, T/C [20]: 18.4%
viability, T/C [5]: 27.8%
viability, T/C [21]: 31.1%
viability, T/C [6]: 24.8%
viability, T/C [22]: 22.8%
viability, T/C [23]: 13.7%
viability, T/C [24]: 6.56%
viability, T/C [7]: 5.71%
viability, T/C [25]: 6.22%
viability, T/C [8]: 5.39%
viability, T/C [26]: 5.9%
viability, T/C [27]: 4.83%
viability, T/C [28]: 3.18%
viability, T/C [9]: 3.86%
viability, T/C [29]: 2.65%
viability, T/C [10]: 2.29%
viability, T/C [30]: 2.54%
viability, T/C [31]: 2.32%
viability, T/C [32]: 1.47%
viability, T/C [11]: 1.65%
viability, T/C [33]: 1.68%
viability, T/C [12]: 1.55%
viability, T/C [34]: 2.21%
viability, T/C [35]: 0.74%
viability, T/C [36]: 0.21%

IC50 (second compound 0.0316 µM): 398 nM
IC50 (second compound 0.1 µM): 212 nM
IC50 (second compound 0.316 µM): < 31.6 nM
IC50 (second compound 1 µM): < 31.6 nM
IC50 (second compound 3.16 µM): < 31.6 nM
IC50 (second compound 10 µM): < 31.6 nM
SMILES: COc1cccc2c1C(=O)c1c(O)c3c(c(O)c1C2=O)CC(O)(C(=O)CO)CC3OC1CC(N)C(O)C(C)O1 (stereo not drawn) + Cc1cnc(CNC(=O)c2c(=O)c3ccc(N4CCCN(C)CC4)nc3n3c2sc2ccccc23)cn1
viability, T/C [1]: 72.5%
viability, T/C [13]: 51.6%
viability, T/C [2]: 54.1%
viability, T/C [14]: 35.8%
viability, T/C [15]: 3.33%
viability, T/C [16]: 0.11%
viability, T/C [3]: 53%
viability, T/C [17]: 57.9%
viability, T/C [4]: 44.4%
viability, T/C [18]: 29.3%
viability, T/C [19]: 2.19%
viability, T/C [20]: 0.13%
viability, T/C [5]: 27.1%
viability, T/C [21]: 29.6%
viability, T/C [6]: 11.8%
viability, T/C [22]: 4.55%
viability, T/C [23]: 0.39%
viability, T/C [24]: 0.1%
viability, T/C [7]: 5.09%
viability, T/C [25]: 6.32%
viability, T/C [8]: 3.38%
viability, T/C [26]: 1.67%
viability, T/C [27]: 0.15%
viability, T/C [28]: 0.09%
viability, T/C [9]: 2.45%
viability, T/C [29]: 2.76%
viability, T/C [10]: 1.56%
viability, T/C [30]: 0.62%
viability, T/C [31]: 0.14%
viability, T/C [32]: 0.12%
viability, T/C [11]: 2.24%
viability, T/C [33]: 2.09%
viability, T/C [12]: 0.73%
viability, T/C [34]: 0.23%
viability, T/C [35]: 0.23%
viability, T/C [36]: 0.19%

IC50 (second compound 0.0316 µM): 1500 nM
IC50 (second compound 0.1 µM): 859 nM
IC50 (second compound 0.316 µM): < 31.6 nM
IC50 (second compound 1 µM): < 31.6 nM
IC50 (second compound 3.16 µM): < 31.6 nM
IC50 (second compound 10 µM): < 31.6 nM
SMILES: O=c1[nH]cc(F)c(=O)[nH]1 + Cc1cnc(CNC(=O)c2c(=O)c3ccc(N4CCCN(C)CC4)nc3n3c2sc2ccccc23)cn1
viability, T/C [1]: 95%
viability, T/C [13]: 95.9%
viability, T/C [2]: 87.3%
viability, T/C [14]: 60.8%
viability, T/C [15]: 30%
viability, T/C [16]: 18.9%
viability, T/C [3]: 72.2%
viability, T/C [17]: 84.7%
viability, T/C [4]: 64.8%
viability, T/C [18]: 47%
viability, T/C [19]: 26.3%
viability, T/C [20]: 13.6%
viability, T/C [5]: 25.4%
viability, T/C [21]: 29.3%
viability, T/C [6]: 22.8%
viability, T/C [22]: 15.7%
viability, T/C [23]: 11%
viability, T/C [24]: 5.17%
viability, T/C [7]: 5.21%
viability, T/C [25]: 5.61%
viability, T/C [8]: 4.05%
viability, T/C [26]: 4.64%
viability, T/C [27]: 4.34%
viability, T/C [28]: 3.5%
viability, T/C [9]: 2.29%
viability, T/C [29]: 3.17%
viability, T/C [10]: 3.1%
viability, T/C [30]: 2.6%
viability, T/C [31]: 3.16%
viability, T/C [32]: 3.13%
viability, T/C [11]: 1.93%
viability, T/C [33]: 2.51%
viability, T/C [12]: 2.25%
viability, T/C [34]: 1.52%
viability, T/C [35]: 2.21%
viability, T/C [36]: 1.32%
